The text below walks through data of patent publication US8580769B2, “Treatment of obesity, metabolic syndrome, and diabetes with protein kinase C inhibitors” (The United States of America as represented by the …, priority 2011, dated 2013).

Data set [1] concerns aPKC. Kind of data set: tissue aPKC activity in Het-MλKO mice. To be noted: for aPKC activation in adipose tissue / aPKC activation in muscle: 7-day treatment s.c. (ATM 60 mg/kg; ICAPP 0.4 mg/kg). Format: in vivo, mouse. The source says: In Vivo Mouse Studies: Male wild type (WT) and heterozygous muscle-specific PKC-λ knockout (Het-MλKO) mice were generated as described (Farese et al., J. Clin. Invest. 117:2289-2301, 2007) and used at 6-12 months of age, when the O/MS/T2DM phenotype in MλKO mice is well-developed. Mice were housed in a temperature-controlled environment with alternating 12-hour light and dark cycles, and fed ad libitum with standard chow (Harlan Teklad 20/18 with 5% fat, (10% of calories from fat)). All experimental procedures in mice were approved by the Institutional Animal Care and Use Committees of the Roskamp Institute and the University of South Florida College of Medicine, and the James A. Haley Veterans Administration Medical Center Research and Development Committee, Tampa, Fla.
(ICAPP; prepared by Southern Research, Birmingham, Ala.) at 0.4 mg/kg body weight. On the morning of the eighth day of inhibitor treatment, mice were injected intraperitoneally (IP) with 0.9% saline or saline containing 1 U insulin/kg body weight 15 minutes before sacrifice, an optimal time for studies of insulin stimulation of aPKC and Akt in liver, muscle and adipose tissues (Standaert et al., J. Biol. Chem. 279:24929-24934, 2004; Sajan et al., J. Lipid Res. 50:1133-1145, 2009; Sajan et al., Diabetologia 52:1197-1207, 2009; Farese et al., J. Clin. Invest. 117:2289-2301, 2007). After killing, blood, liver, quadriceps muscle and abdominal adipose tissues were rapidly removed and homogenized in buffer with a POLYTRON® homogenizer.
(§1) Tissue and Immunoprecipitate Preparations: As previously described (Standaert et al., J. Biol. Chem. 279:24929-24934, 2004; Sajan et al., J. Lipid Res. 50:1133-1145, 2009; Sajan et al., Diabetologia 52:1197-1207, 2009; Farese et al., J. Clin. Invest. 117:2289-2301, 2007) hepatocytes and tissues from in vivo experiments were homogenized in ice-cold buffer containing 0.25 M sucrose, 20 mM Tris/HCl (pH 7.5), 2 mM EGTA, 2 mM EDTA, 1 mM phenylmethylsulfonyl fluoride (PMSF), 20 μg/ml leupeptin, 10 μg/ml aprotinin, 2 mM Na4P2O7, 2 mM Na3VO4, 2 mM NaF, and 1 μM microcystin. After centrifugation for 10 minutes at 700×g to remove unbroken cells, debris, nuclei, and floating fat, cell lysates were stored at −70° C. After addition of 1% TRITON® X-100, 0.6% Nonidet and 150 mM NaCl, lysates were cleared of insoluble materials by low-speed centrifugation and subsequently immunoprecipitated with antibodies that target: (a) aPKCs (rabbit polyclonal antiserum from Santa Cruz Biotechnologies (Santa Cruz, Calif.) that recognizes C-termini of both PKC-λ and PKC-ζ); and (b) Akt2 (Upstate Cell Signaling/Millipore, Billerica, Mass.). Immunoprecipitates were collected on Sepharose-AG beads (Santa Cruz Biotechnologies).
aPKCι Assays: aPKC enzyme activity was measured as previously described (Standaert et al., J. Biol. Chem. 279:24929-24934, 2004; Sajan et al., J. Lipid Res. 50:1133-1145, 2009; Sajan et al., Diabetologia 52:1197-1207, 2009; Farese et al., J. Clin. Invest. 117:2289-2301, 2007). […] After incubation, ^32P-labeled substrate was trapped on P-81 filter paper and counted. This assay reflects the specific activity of a constant amount of aPKC (even in Het-MλKO mice) that is immunoprecipitated by supplier-prescribed amounts of antiserum (Farese et al., J. Clin. Invest. 117:2289-2301, 2007; Beeson et al., Diabetes 52:1926-1934, 2003).

In data set [2] the test system is total (ι plus ζ) aPKC. Kind of data set: aPKC activity and phosphorylation in intact human hepatocytes. The data set is classed as cell-based. To be noted: for phosphorylation of aPKC auto(trans)phosphorylation sites (p-threonine-555/560-PKC-ι/ζ): intact human hepatocytes.
Excerpt: Human cryo-preserved hepatocytes (70-90% viability) were obtained from the Zen-Bio Corp (Research Triangle Park, North Carolina). These hepatocytes were harvested after perfusion with collagenase-containing buffer of livers surgically removed from non-diabetic patients (2 females and 6 males; ages, 43-60 years, 51±3 (mean±SEM); BMI, 23-35, 30±2) and T2DM patients (2 females and 3 males, ages, 46-68 years, 60±4; BMI, 27±2; all insulin-requiring) who had been maintained as transplant donors, but were ultimately rejected for administrative reasons. To maximize the importance of comparative differences, hepatocytes from T2DM and non-diabetic patients, and of similar age and sex, were routinely incubated and assayed side-by-side.
After thawing, the hepatocytes were distributed (approximately 10^6 cells per 100 mm plate) and incubated approximately 16 hours overnight in Dulbecco's minimal essential medium containing 5% fetal calf serum, 100 units/ml sodium-penicillin, 100 μg/ml streptomycin-sulfate, 1 μM insulin and 2 μM dexamethasone. After washing, cells were incubated first for 2 hours in William's E medium (Sigma-Aldrich, St. Louis, Mo., catalog no. W1878) containing GLUTAMAX™ (Gibco/Invitrogen, Carlsbad, Calif.), 100 units/ml sodium-penicillin, 100 μg/ml streptomycin-sulfate, 10 μM insulin, 100 nM dexamethasone, and then for 2 hours in William's E medium containing 100 units/ml sodium penicillin, 100 μg/ml streptomycin-sulfate, 100 nM dexamethasone, 0.25 mg/ml transferrin, 0.25 μg/ml sodium selenite and 10 μM insulin. Cells were then washed and incubated for 3 hours in the same medium, but lacking insulin. Where indicated, […], […] After incubation, cells were sonicated in homogenizing buffer.
as §1
aPKCι Assays: aPKC enzyme activity was measured as previously described (Standaert et al., J. Biol. Chem. 279:24929-24934, 2004; Sajan et al., J. Lipid Res. 50:1133-1145, 2009; Sajan et al., Diabetologia 52:1197-1207, 2009; Farese et al., J. Clin. Invest. 117:2289-2301, 2007). […]

Setting [3] is: Het-MλKO mice, s.c. once daily (ICAPP 0.4 mg/kg 7 days; ICAP 0.5 mg/kg 8 days).

As for `NC(=O)c1ncn([C@@H]2C[C@H](COP(=O)(O)O)[C@@H](O)[C@H]2O)c1N` [ICAPP, 1H-imidazole-4-carboxamide, 5-amino-1-[2,3-dihydroxy-4-[(phosphonooxy)methyl]cyclopentyl]-[1R-(1α,2β,3β,4α)]], in data set [1] (Het-MλKO mice), the “aPKC activation in adipose tissue” value is “increased significantly or trended upward” and the “aPKC activation in muscle” value was “increased significantly or trended upward”. Besides, the “hepatic aPKC activity” value in data set [1] (setting [3]) is given as “diminished”. In addition, the “PDK1-dependent phosphorylation of activation loop sites of PKC-ι/ζ (threonine-403/410)” value in data set [2] (human hepatocytes) is on record as “did not inhibit”. Moreover, the “basal immunoprecipitable aPKC activity” value in data set [2] (human hepatocytes, basal (no insulin)) is “resistant”. In data set [2], the “phosphorylation of aPKC auto(trans)phosphorylation sites (p-threonine-555/560-PKC-ι/ζ)” value was “diminished”. Moreover, the “inhibition of insulin-stimulated total (ι plus ζ) aPKC activity in intact human hepatocytes” value in data set [2] (non-diabetic human hepatocytes, 4 hours) is “approximately 50%”.
Take `NC(=O)c1ncn([C@@H]2C[C@H](CO)[C@@H](O)[C@H]2O)c1N` [ICAP, 1H-imidazole-4-carboxamide 5-amino-1-[2,3-dihydroxy-4-[hydroxymethyl]cyclopentyl]-[1R-(1α,2β,3β,4α)]]: the “hepatic aPKC activity” value is given as “inhibited” in data set [1] (setting [3]) and 1374 ± 128 cpm/immunoppt in data set [1] (ICAP-treated Mλ-Het KO mice (n = 12), 0.5 mg/kg body weight/day x 8 days s.c., mean ± SEM). Moreover, the “insulin-provoked increase in aPKC activity” value in data set [2] (non-diabetic human hepatocytes, 6 hours, 100 nM insulin, 100 nM ICAP) was “inhibited”.
Consider `O=C([O-])CC([S][Au])C(=O)[O-]` (centres unmarked) [ATM, aurothiomalate, reference compound], for which, in data set [1] (Het-MλKO mice), the “aPKC activation in adipose tissue” value was “increased significantly” and the “aPKC activation in muscle” value is “increased significantly”. For the same compound, in data set [2] (human hepatocytes), the “total aPKC activity in intact hepatocytes” value is on record as “diminished”. Besides, the “phosphorylation of aPKC auto(trans)phosphorylation sites (p-threonine-555/560-PKC-ι/ζ)” value in data set [2] was “diminished”.
